Reference: patent US20140228287A1, “1-[(3-CYANO-PYRIDIN-2-YL)METHYL]-3-METHYL-7-(2-BUTYN-1-YL)-8-[3-(R)-AMINO-PIPERIDIN-1-YL]-AXANTHINE FOR THE TREATMENT OF A METABOLIC DISORDER OF A PREDOMINANTLY CARNIVOROUS NON-HUMAN ANIMAL” (BOEHRINGER INGELHEIM VETMEDICA GMBH, priority 2010, published 2014)
Where a name gives a salt, the structure may show the parent alone.

Assays:
DPP 9 = DPP 9 (Homo sapiens, UniProt Q86TI2); experiment: In vitro selectivity, human proteases: DPP 9; format: biochemical
Source text: (§1) In order to determine the in vitro selectivity of 1-[(3-cyano-pyridin-2-yl)methyl]-3-methyl-7-(2-butyn-1-yl)-8-[3-(R)-amino-piperidin-1-yl]-xanthine, the ability of this compound to inhibit a number of human proteases was investigated as described in Thomas et al. (2008), J. Pharmacol. Exp. Ther., vol. 325, p. 175-182, chapter In vitro DPP-4 Inhibition Assay, p. 176.

plasma DPP IV = biological target: T1, plasma DPP IV (Rattus norvegicus, UniProt P14740); experiment: Inhibition of plasma DPP IV activity in vitro, rat plasma; format: biochemical
T1 construct: from tissue
Description: Studies were also conducted to assess the inhibitory effect of this compound on plasma DPP IV activity in several species.

DPP IV = biological target: T2, DPP IV (Felis catus, UniProt Q9N2I7); experiment: 60-Day tolerability study of tablets in cats: relative DPP IV activity; format: in vivo, cat; details: percent of day 2 predose
T2 construct: Blood samples for the determination of this compound and DPP IV activity were collected; from tissue; host or cells: plasma of domestic short hair / purpose-bred cats dosed orally
Description: This study was conducted in order to examine the long-term tolerability of a pharmaceutical composition comprising 1-[(3-cyano-pyridin-2-yl)methyl]-3-methyl-7-(2-butyn-1-yl)-8-[3-(R)-amino-piperidin-1-yl]-xanthine monohydrochloride in cats after repeated oral administration for 60-days.
For this purpose, the compound according to the invention has been admixed with standard ingredients to a scored, oblong, brown tablet, size 10×5.5 mm, comprising 1-[(3-cyano-pyridin-2-yl)methyl]-3-methyl-7-(2-butyn-1-yl)-8-[3-(R)-amino-piperidin-1-yl]-xanthine monohydrochloride at 21.68 mg of the chloride per tablet (which equals 20 mg of the free base) and 10% meat flavour.
20 male healthy non-obese cats (Domestic short hair feline) supplied by Liberty Research, Inc., Waverly, N.Y., USA, of an age of 13 to 20 months were used. After an adaptation period of 4 weeks, they were separated into three groups: group 1 (6 members, no. 1 to 6) for placebo treatment, group 2 (7 members, no. 7 to 13) for treatment with 20 mg/cat, group 3 (7 members, no. 14 to 20) for treatment with 40 mg/cat. They were treated once daily in the morning, orally with the respective tablet(s) for 60 days. All animals had fasted over night and were fed 4 hours after the administration. Drinking water was offered ad libitum. Housing conditions etc. were kept constant and equally for all animals; they were kept in groups during the adaptation period and singly during the experimental period.
Relative DPP-IV activity was measured as described above.

blood glucose = experiment: Glucose monitoring in obese/non-obese cats, 7 days once daily dosing; format: in vivo, cat; details: 9 mg once daily 7 days; for Glucose, Max / Glucose, Mean / Glucose, Median / Glucose, Min: all 14 obese and non-obese cats, 168 hour period
Source text: The aim of this exploratory, randomized, placebo controlled crossover study was to investigate the effect of 1-[(3-cyano-pyridin-2-yl)methyl]-3-methyl-7-(2-butyn-1-yl)-8-[3-(R)-amino-piperidin-1-yl]-xanthine monohydrochloride on DPP IV activity and on glucose concentrations in obese and non-obese cats after repeated oral administration over seven days.
Fourteen clinically healthy male and female (8 obese and 6 non-obese) purpose-bred cats were used in this study. The animals were randomly allocated to two groups of cats, obese and non-obese, and treated in a cross-over design with 9 mg 1-[(3-cyano-pyridin-2-yl)methyl]-3-methyl-7-(2-butyn-1-yl)-8-[3-(R)-amino-piperidin-1-yl]-xanthine monohydrochloride or placebo, once daily for 7 days, with a following wash-out period of 21 days.
Cats were fed once daily 40 min after administration of the compound or the placebo, respectively.
To allow a Continuous glucose monitoring (CGM) a Continuous glucose monitoring system (CGMS) was applied. To this end, on day 1 a Medtronic continuous glucose monitoring sensor (Guardian system; Medtronic Minimed, Northridge, Calif., USA) was placed interstitially. The skin was shaved, and then wiped several times with 70% alcohol. The sensor was inserted into the skin and secured to the skin with a cover provided by Medtronics, and Elasticon. The CGMS was calibrated 2 times daily using a glucometer. When a sensor became non-functional, a new sensor was placed. The sensors were placed between the shoulder blades. Data were recalled via a wireless system.
Also blood samples for were taken before and 6, 12, 24, 64, and 168 hours (3 ml each) after oral administration of the test compound or the placebo. Blood samples for the calibration of the CGMS were taken at least twice daily from day 1 to day 7 approximately twelve hours apart (0.2 ml of blood each time). Glucose measurements were performed using a glucometer (Presto WaveSense) and also a colorimetric glucose oxidase method (Genzyme Diagnostics PEI Incorporated; Charlottetown, Canada), reference method, at appropriate time points (0.2 ml each time; see results section). Interstitial glucose concentrations were followed with the continuous glucose monitoring system. After 7 days, the CGMS was removed.
The measured mean, median, min, and max glucose values for all 14 cats during a 168 hour testing period using the three glucose measurement methods are shown in Table 9.

thrombin = thrombin (Homo sapiens, UniProt P00734); experiment: In vitro selectivity, human proteases: thrombin; format: biochemical; details: up to 100 μM
Source text: as §1

trypsin = experiment: In vitro selectivity, human proteases: trypsin; format: biochemical; details: up to 100 μM
Source text: as §1

[1] = Glucose oxidase (reference method)

T2 sequence (Q9N2I7 38-765 limits assumed): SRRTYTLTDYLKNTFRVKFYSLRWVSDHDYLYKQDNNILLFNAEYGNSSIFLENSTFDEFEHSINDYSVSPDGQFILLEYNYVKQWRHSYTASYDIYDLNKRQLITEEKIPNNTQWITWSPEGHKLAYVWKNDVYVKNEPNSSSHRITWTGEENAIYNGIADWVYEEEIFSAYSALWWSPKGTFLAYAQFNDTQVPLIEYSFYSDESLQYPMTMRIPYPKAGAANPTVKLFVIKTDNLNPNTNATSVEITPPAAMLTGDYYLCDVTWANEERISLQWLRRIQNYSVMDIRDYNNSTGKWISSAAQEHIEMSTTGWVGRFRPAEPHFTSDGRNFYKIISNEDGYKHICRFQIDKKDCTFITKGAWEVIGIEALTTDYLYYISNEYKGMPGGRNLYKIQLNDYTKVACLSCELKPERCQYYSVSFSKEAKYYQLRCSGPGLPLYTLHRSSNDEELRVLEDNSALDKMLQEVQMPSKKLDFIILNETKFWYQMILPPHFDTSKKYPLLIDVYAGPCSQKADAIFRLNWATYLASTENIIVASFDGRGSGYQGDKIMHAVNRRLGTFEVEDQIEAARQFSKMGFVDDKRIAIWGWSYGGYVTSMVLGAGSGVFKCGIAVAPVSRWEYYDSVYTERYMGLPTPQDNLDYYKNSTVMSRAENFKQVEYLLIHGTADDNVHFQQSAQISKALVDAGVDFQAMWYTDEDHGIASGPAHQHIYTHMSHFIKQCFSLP
Sequence of DPP 9 (Q86TI2 whole entry): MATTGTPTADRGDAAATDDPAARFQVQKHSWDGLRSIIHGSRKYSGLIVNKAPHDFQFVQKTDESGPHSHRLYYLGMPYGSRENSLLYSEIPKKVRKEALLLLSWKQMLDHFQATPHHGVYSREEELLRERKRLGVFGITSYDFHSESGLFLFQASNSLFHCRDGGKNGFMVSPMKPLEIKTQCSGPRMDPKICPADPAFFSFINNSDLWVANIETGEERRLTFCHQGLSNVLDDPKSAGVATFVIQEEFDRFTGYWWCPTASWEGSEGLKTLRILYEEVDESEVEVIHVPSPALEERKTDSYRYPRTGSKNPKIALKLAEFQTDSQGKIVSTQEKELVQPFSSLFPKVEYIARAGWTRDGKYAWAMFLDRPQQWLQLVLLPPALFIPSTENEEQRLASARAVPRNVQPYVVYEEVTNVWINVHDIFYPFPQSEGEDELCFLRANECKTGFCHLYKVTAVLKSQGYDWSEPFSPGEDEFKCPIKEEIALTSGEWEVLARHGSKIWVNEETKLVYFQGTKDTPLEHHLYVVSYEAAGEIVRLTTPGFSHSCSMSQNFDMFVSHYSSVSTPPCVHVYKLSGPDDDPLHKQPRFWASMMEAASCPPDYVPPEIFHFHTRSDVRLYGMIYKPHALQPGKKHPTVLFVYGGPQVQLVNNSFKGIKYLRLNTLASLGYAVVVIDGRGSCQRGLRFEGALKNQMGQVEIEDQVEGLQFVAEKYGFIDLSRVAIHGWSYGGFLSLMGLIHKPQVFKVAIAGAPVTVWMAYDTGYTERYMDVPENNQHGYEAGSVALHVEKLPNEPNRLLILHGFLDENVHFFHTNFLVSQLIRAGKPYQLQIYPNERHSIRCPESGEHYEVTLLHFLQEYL
T1 sequence (P14740 37-767 limits assumed): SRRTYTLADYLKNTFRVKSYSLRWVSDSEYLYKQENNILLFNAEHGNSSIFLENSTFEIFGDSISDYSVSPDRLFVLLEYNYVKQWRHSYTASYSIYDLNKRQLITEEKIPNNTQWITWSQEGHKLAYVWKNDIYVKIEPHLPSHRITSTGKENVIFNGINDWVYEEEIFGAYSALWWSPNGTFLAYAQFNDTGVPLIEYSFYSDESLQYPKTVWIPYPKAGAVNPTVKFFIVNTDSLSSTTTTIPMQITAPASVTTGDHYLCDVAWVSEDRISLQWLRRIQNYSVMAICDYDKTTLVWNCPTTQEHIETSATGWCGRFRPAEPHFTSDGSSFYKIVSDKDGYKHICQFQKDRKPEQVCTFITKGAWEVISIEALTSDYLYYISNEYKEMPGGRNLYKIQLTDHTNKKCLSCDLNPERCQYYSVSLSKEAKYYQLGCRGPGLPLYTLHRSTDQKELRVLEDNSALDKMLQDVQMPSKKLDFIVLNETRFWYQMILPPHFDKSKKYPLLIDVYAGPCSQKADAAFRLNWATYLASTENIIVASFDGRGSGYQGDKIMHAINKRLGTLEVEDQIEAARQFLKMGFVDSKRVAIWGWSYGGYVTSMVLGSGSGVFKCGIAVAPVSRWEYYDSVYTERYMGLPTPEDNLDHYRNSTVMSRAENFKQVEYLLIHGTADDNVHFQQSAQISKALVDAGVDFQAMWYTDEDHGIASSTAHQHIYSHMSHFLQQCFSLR

CC#CCn1c(N2CCC[C@@H](N)C2)nc2c1c(=O)n(Cc1ncccc1C#N)c(=O)n2C [1-[(3-cyano-pyridin-2-yl)methyl]-3-methyl-7-(2-butyn-1-yl)-8-[3-(R)-amino-piperidin-1-yl]-xanthine monohydrochloride]
IC50 (DPP 9): > 10000 nM | IC50 (plasma DPP IV): ~0.8 nM | Relative DPP IV activity (DPP IV; Group no. 2 (20 mg daily tablets), Treatment day 60 (1 h after dose)): 11% | Relative DPP IV activity (DPP IV; Group no. 2, excl. animal no. 8 (20 mg daily tablets), Treatment day 60 (predose)): 17% | Relative DPP IV activity (DPP IV; Group no. 3 (40 mg daily tablets), Treatment day 60 (1 h after dose)): 10% | Relative DPP IV activity (DPP IV; Group no. 3 (40 mg daily tablets), Treatment day 60 (predose)): 16% | Glucose, Max (blood glucose; CGM): 126 mg/dL | Glucose, Mean (blood glucose; CGM): 94 mg/dL | Glucose, Median (blood glucose; CGM): 93 mg/dL | Glucose, Min (blood glucose; CGM): 66 mg/dL | Glucose, Max (blood glucose; Glucometer): 131 mg/dL | Glucose, Mean (blood glucose; Glucometer): 103 mg/dL | Glucose, Median (blood glucose; Glucometer): 101 mg/dL | Glucose, Min (blood glucose; Glucometer): 79 mg/dL | Glucose, Max (blood glucose; [1]): 142 mg/dL | Glucose, Mean (blood glucose; [1]): 93 mg/dL | Glucose, Median (blood glucose; [1]): 89 mg/dL | Glucose, Min (blood glucose; [1]): 71 mg/dL | daily blood glucose concentrations, treated vs placebo treated (blood glucose; obese or non-obese cats): no difference in daily blood glucose concentrations | inhibitory effect on thrombin (thrombin): did not exert any inhibitory effect | inhibitory effect on trypsin (trypsin): did not exert any inhibitory effect
